Data taken from patent publication US20120252721A1 (priority 2011, published 2012).

Legend:
[1] = test system: 1a-luc WT (HCV genotype 1a replicon); assay: Luciferase replicon transient transfection assay, 1a-luc WT; type: cell-based; conditions: Hepatitis C virus, 96 h, Huh7.5 cells, 4 days
Procedure: (§1) The luciferase replicon transient transfection assay measures the ability of a test compound to inhibit the replication of a transiently-transfected HCV luciferase-bearing wild-type or mutant replicon in cured human hepatoma cells (Huh7.5). The inhibition of HCV replication was measured by quantification of luciferase protein expression. This assay has been validated using a panel of genotype 1a and 1b replicons bearing mutations known to be associated with resistance to BMS-790052. Briefly, subconfluent Huh7.5 cells were electroporated with 10 μg of wild-type or mutant luciferase-bearing HCV replicon RNA. The cells were then seeded in 96-well opaque white plates at 3×10^4 cells/well in 150 μL/well and incubated for 4 hrs at 37° C./5% CO2. Ten 1:5 serial dilutions of each test compound were made in media (DMEM containing glucose, L-glutamine and sodium pyruvate, 10% fetal bovine serum, 100 IU/mL penicillin, 100 μg/mL streptomycin, 2 mM GlutaMAX, and 1×MEM non-essential amino acids (Mediatech, Inc. and Invitrogen Corp.)) at concentrations that were 4× higher than the final concentrations to be tested and 50 μL/well was added to the transfected cells. Untreated, mock-transfected cells served as a negative control of luciferase expression. The plates were incubated at 37° C./5% CO2 for 4 days whereupon the media was removed and 50 μL of ONE-glo luciferase substrate (Promega) was added to each well. The plates were agitated on a rotating platform at room temperature for 3 min and read in a Victor^3V microplate reader (Perkin-Elmer) using a 700 nm cut-off filter with a 1 sec read time. EC50 values were calculated from dose response curves from the resulting best-fit equations determined by Microsoft Excel and XLfit 4.1 software.

[2] = test system: 1a-luc L31F (HCV genotype 1a replicon); assay: Luciferase replicon transient transfection assay, 1a-luc L31F; type: cell-based, hepatitis C virus
Procedure: as §1

[3] = test system: ZS11-luc L31M (HCV genotype 1b replicon); assay: Luciferase replicon transient transfection assay, ZS11-luc L31M; type: cell-based, hepatitis C virus
Procedure: as §1

[4] = test system: 1a-luc Q30K (HCV genotype 1a replicon); assay: Luciferase replicon transient transfection assay, 1a-luc Q30K; type: cell-based, hepatitis C virus
Procedure: as §1

[5] = test system: HCV genotype 1a replicon, NS4B E15G; assay: Luciferase replicon transient transfection assay, genotype 1a NS4B E15G; type: cell-based, hepatitis C virus
Procedure: as §1
(§2) To determine the replication capacity of each mutant relative to the wild-type parental replicon, transfected cells were plated on two plates and were not treated with compound. Luciferase activity was measured at time points of 4 hrs and 4 days after plating for each replicon. Replication capacity was calculated by dividing the day 4 CPS by the 4 hour CPS for each replicon and determining the percentage present for each mutant replicon relative to wild-type replicon values. The NS3, NS4B, and NS5B mutants were prepared and tested according to the methods described herein.

[6] = test system: 1a-luc L31V (HCV genotype 1a replicon); assay: Luciferase replicon transient transfection assay, 1a-luc L31V; type: cell-based, hepatitis C virus; conditions: for EC50: Hepatitis C virus, 96 h, Huh7.5 cells, 4 days
Procedure: as §1

[7] = test system: HCV genotype 1a replicon, NS3 T260A; assay: Luciferase replicon transient transfection assay, genotype 1a NS3 T260A; type: cell-based, hepatitis C virus
Procedure: as §1, §2

[8] = test system: HCV genotype 1a replicon, NS5A E295G; assay: Luciferase replicon transient transfection assay, genotype 1a NS5A E295G; type: cell-based, hepatitis C virus
Procedure: as §1

[9] = test system: 1a-luc L31M (HCV genotype 1a replicon); assay: Luciferase replicon transient transfection assay, 1a-luc L31M; type: cell-based, hepatitis C virus
Procedure: as §1

[10] = test system: ZS11-luc Y93C (HCV genotype 1b replicon); assay: Luciferase replicon transient transfection assay, ZS11-luc Y93C; type: cell-based, hepatitis C virus
Procedure: as §1

[11] = test system: 1a-luc Q30E (HCV genotype 1a replicon); assay: Luciferase replicon transient transfection assay, 1a-luc Q30E; type: cell-based, hepatitis C virus; conditions: for EC50: Hepatitis C virus, 96 h, Huh7.5 cells, 4 days
Procedure: as §1

[12] = test system: ZS11-luc L31F (HCV genotype 1b replicon); assay: Luciferase replicon transient transfection assay, ZS11-luc L31F; type: cell-based, hepatitis C virus
Procedure: as §1

[13] = test system: 1a-luc Y93C (HCV genotype 1a replicon); assay: Luciferase replicon transient transfection assay, 1a-luc Y93C; type: cell-based, hepatitis C virus
Procedure: as §1

[14] = test system: ZS11-luc Y93N (HCV genotype 1b replicon); assay: Luciferase replicon transient transfection assay, ZS11-luc Y93N; type: cell-based, hepatitis C virus
Procedure: as §1

[15] = test system: ZS11-luc L31V (HCV genotype 1b replicon); assay: Luciferase replicon transient transfection assay, ZS11-luc L31V; type: cell-based, hepatitis C virus; conditions: for EC50: Hepatitis C virus, 96 h, Huh7.5 cells, 4 days
Procedure: as §1

[16] = test system: ZS11-luc WT (HCV genotype 1b replicon); assay: Luciferase replicon transient transfection assay, ZS11-luc WT; type: cell-based, hepatitis C virus; conditions: Hepatitis C virus, Huh7.5, 96 h, genotype 1b, ZS11-luc WT, Huh7.5 cells, 4 days
Procedure: as §1

[17] = test system: 1a-luc Q30R (HCV genotype 1a replicon); assay: Luciferase replicon transient transfection assay, 1a-luc Q30R; type: cell-based, hepatitis C virus
Procedure: as §1

[18] = test system: 1a-luc P32L (HCV genotype 1a replicon); assay: Luciferase replicon transient transfection assay, 1a-luc P32L; type: cell-based, hepatitis C virus
Procedure: as §1

[19] = test system: 1a-luc Y93N (HCV genotype 1a replicon); assay: Luciferase replicon transient transfection assay, 1a-luc Y93N; type: cell-based, hepatitis C virus
Procedure: as §1

[20] = test system: ZS11-luc R30E (HCV genotype 1b replicon); assay: Luciferase replicon transient transfection assay, ZS11-luc R30E; type: cell-based, hepatitis C virus
Procedure: as §1

[21] = test system: ZS11-luc L28T (HCV genotype 1b replicon); assay: Luciferase replicon transient transfection assay, ZS11-luc L28T; type: cell-based, hepatitis C virus
Procedure: as §1

[22] = test system: ZS11-luc P32L (HCV genotype 1b replicon); assay: Luciferase replicon transient transfection assay, ZS11-luc P32L; type: cell-based, hepatitis C virus
Procedure: as §1

[23] = test system: ZS11-luc Y93H (HCV genotype 1b replicon); assay: Luciferase replicon transient transfection assay, ZS11-luc Y93H; type: cell-based, hepatitis C virus; conditions: for EC50: Hepatitis C virus, 96 h, Huh7.5 cells, 4 days
Procedure: as §1

[24] = test system: 1a-luc M28T (HCV genotype 1a replicon); assay: Luciferase replicon transient transfection assay, 1a-luc M28T; type: cell-based, hepatitis C virus
Procedure: as §1

[25] = test system: HCV genotype 1a replicon, NS5A K24E; assay: Luciferase replicon transient transfection assay, genotype 1a NS5A K24E; type: cell-based, hepatitis C virus
Procedure: as §1

[26] = test system: 1a-luc Q30H (HCV genotype 1a replicon); assay: Luciferase replicon transient transfection assay, 1a-luc Q30H; type: cell-based, hepatitis C virus
Procedure: as §1

[27] = test system: 1a-luc Y93H (HCV genotype 1a replicon); assay: Luciferase replicon transient transfection assay, 1a-luc Y93H; type: cell-based, hepatitis C virus; conditions: for EC50: Hepatitis C virus, 96 h, Huh7.5 cells, 4 days
Procedure: as §1

[28] = Hepatitis C virus, 96 h, Huh7.5 cells, 4 days

SMILES: COC(=O)N[C@H](C(=O)N1CCC[C@H]1c1nc(-c2ccc(-c3ccc(-c4c[nH]c([C@@H]5CCCN5C(=O)[C@@H](NC(=O)OC)C(C)C)n4)cc3)cc2)c[nH]1)C(C)C [BMS-790052, reference compound]
- EC50 [1]: 0.026 nM
- Ratio [2]: 43
- EC50 [2, 28]: 1 nM
- Ratio [3]: 3
- EC50 [3, 28]: 0.06 nM
- Ratio [4]: 752
- EC50 [4, 28]: 19 nM
- EC50 ([5]; Hepatitis C virus, HCV region NS4B, mutation E15G): 0.029 nM
- Ratio ([5]; NS4B E15G): 1.62
- Ratio [6]: 899
- EC50 [6]: 23 nM
- EC50 ([7]; Hepatitis C virus, genotype 1a, HCV region NS3, mutation T260A): 0.031 nM
- Ratio ([7]; {}): 1.74
- EC50 ([8]; Hepatitis C virus, genotype 1a, HCV region NS5A, mutation E295G): 0.028 nM
- Ratio ([8]; {}): 1.56
- Ratio [9]: 115
- EC50 [9, 28]: 3 nM
- Ratio [10]: 2
- EC50 [10, 28]: 0.04 nM
- Ratio [11]: 2935
- EC50 [11]: 74 nM
- Ratio [12]: 7
- EC50 [12, 28]: 0.1 nM
- Ratio [13]: 287
- EC50 [13, 28]: 7 nM
- Ratio [14]: 33
- EC50 [14, 28]: 0.7 nM
- Ratio [15]: 23
- EC50 [15]: 0.4 nM
- EC50 [16]: 0.02 nM
- Ratio [17]: 95
- EC50 [17, 28]: 2 nM
- Ratio [18]: 142
- EC50 [18, 28]: 4 nM
- Ratio [19]: 7842
- EC50 [19, 28]: 192 nM
- Ratio [20]: 7
- EC50 [20, 28]: 0.1 nM
- Ratio [21]: 25
- EC50 [21, 28]: 0.5 nM
- Ratio [22]: 9
- EC50 [22, 28]: 0.2 nM
- Ratio [23]: 19
- EC50 [23]: 0.4 nM
- Ratio [24]: 165
- EC50 [24, 28]: 4 nM
- EC50 ([25]; Hepatitis C virus, genotype 1a, HCV region NS5A, mutation K24E): 0.032 nM
- Ratio ([25]; {}): 1.78
- Ratio [26]: 155
- EC50 [26, 28]: 4 nM
- Ratio [27]: 1392
- EC50 [27]: 35 nM

SMILES: COC(=O)N[C@H](C(=O)N1CCC[C@H]1c1ncc(-c2ccc(-c3cc4sc(-c5ccc(-c6c[nH]c(C7CCCN7C(=O)[C@H](NC(=O)OC)c7ccccc7)n6)cc5)cc4s3)cc2)[nH]1)C(C)C (stereo partly shown) [Compound A192]
- EC50 [1]: 0.02 nM
- Ratio [6]: 678
- EC50 [6]: 11 nM
- Ratio [11]: 597
- EC50 [11]: 9 nM
- Ratio [15]: 20
- EC50 [15]: 0.05 nM
- EC50 [16]: 0.003 nM
- Ratio [23]: 138
- EC50 [23]: 0.4 nM
- Ratio [27]: 5072
- EC50 [27]: 79 nM

SMILES: COC(=O)N[C@H](C(=O)N1CCCC1c1ncc(-c2csc3c(-c4ccc(-c5cnc(C6CCCN6C(=O)C(c6ccccc6)N6CCCCC6)[nH]5)cc4)csc23)[nH]1)C(C)C (stereo partly shown) [Compound A219]
- EC50 [1]: 0.04 nM
- Ratio [6]: 442
- EC50 [6]: 18 nM
- Ratio [11]: 25
- EC50 [11]: 1 nM
- Ratio [15]: 4
- EC50 [15]: 0.05 nM
- EC50 [16]: 0.01 nM
- Ratio [23]: 49
- EC50 [23]: 0.6 nM
- Ratio [27]: 4841
- EC50 [27]: 210 nM
